Test results reported in US6054478A, “Antifungal sordaridin derivatives” (Glaxo Wellcome S.A., priority 1994, dated 2000).
≈ marks a conversion by molar mass, not a printed value.

How the values were obtained:
C. albicans 1208E = test: in vitro antifungal MIC, two-fold serial dilution; assay type: cell-based; conditions: Candida albicans, 24 to 48 hours at 37° C
Procedure: (§1) The in vitro evaluation of the anti-fungal activity of compounds of the invention was performed on liquid or solid medium by the anti-fungal two-fold serial dilution technique of determining the minimum inhibitory concentration (MIC) of anti-fungal agent that inhibited development of growth after 24 to 48 hours of incubation at 37° C. In practice, a series of agar plates or broth microdilution panels containing two-fold dilutions of anti-fungal agent tested were inoculated with a standard culture of a clinically relevant pathogen, for example, candida albicans. The agar plates or broth microdulution panels were then examined for the presence or absence of growth of the fungus and the appropriate MIC values were noted. Compounds of formula (I) have been tested for anti fungal activity in a standard in vitro screen and the minimum inhibiting concentration (MIC; μg/ml) determined for each compound against a variety of clinically relevant pathogens.

C. albicans 2005E = test: in vitro antifungal MIC, two-fold serial dilution; assay type: cell-based; conditions: Candida albicans, 24 to 48 hours at 37° C
Procedure: as §1

C. albicans 2402E = test: in vitro antifungal MIC, two-fold serial dilution; assay type: cell-based; conditions: Candida albicans, 24 to 48 hours at 37° C
Procedure: as §1

C. glabrata 2375E = test: in vitro antifungal MIC, two-fold serial dilution; assay type: cell-based; conditions: Nakaseomyces glabratus, 24 to 48 hours at 37° C
Procedure: as §1

C. glabrata 2376E = test: in vitro antifungal MIC, two-fold serial dilution; assay type: cell-based; conditions: Nakaseomyces glabratus, 24 to 48 hours at 37° C
Procedure: as §1

C. neoformans 2867E = test: in vitro antifungal MIC, two-fold serial dilution; assay type: cell-based; conditions: Cryptococcus neoformans, 24 to 48 hours at 37° C
Procedure: as §1

C. tropicalis 2808E = test: in vitro antifungal MIC, two-fold serial dilution; assay type: cell-based; conditions: Candida tropicalis, 24 to 48 hours at 37° C
Procedure: as §1

C. psuedotropicalis 371E = test: in vitro antifungal MIC, two-fold serial dilution; assay type: cell-based, Candida pseudotropicalis; conditions: Kluyveromyces marxianus, 24 to 48 hours at 37° C
Procedure: as §1

C. albicans 4711 = test: in vitro antifungal MIC, two-fold serial dilution; assay type: cell-based; conditions: Candida albicans, 24 to 48 hours at 37° C
Procedure: as §1

C. albicans 4711E = test: in vivo protection of mice infected with C. albicans; set-up: species or system Candida albicans; male mice; conditions: 50 mg/kg sc
From the text: The in vivo evaluation of compounds of formula (I) can be carried out at a series of dose levels by administration (e.g. subcutaneously, orally, intraperitoneally or intravenously) to mice or rats inoculated with a strain of Candida albicans. Untreated animals die within 3 to 9 days and the dose level at which the test compound provides 50% protection against the lethal effect of the infection is noted.
(§2) The compounds of the invention are essentially non-toxic at therapeutically useful levels.

[1] = adverse effects in treated mice; assay type: in vivo, male mice; conditions: 50 mg/kg sc
From the text: as §2

fungal organisms = conditions: cited from earlier work; for antifungal activity (reported): reported in the literature; for antifungal activity and spectrum of action: when tested against a battery of fungal organisms

Row | SMILES | MIC (C. albicans 1208E) | MIC (C. albicans 2005E) | MIC (C. albicans 2402E) | MIC (C. glabrata 2375E) | MIC (C. glabrata 2376E) | MIC (C. neoformans 2867E) | MIC (C. tropicalis 2808E) | MIC (C. psuedotropicalis 371E) | MIC (C. albicans 4711) | protection of male mice infected with C. albicans 4711E (C. albicans 4711E) | adverse effects in the treated mice [1] | antifungal activity (reported) (fungal organisms) | antifungal activity and spectrum of action (fungal organisms)
1 | CCCCCCOC1C(O)C(OCC23CC4C(C)CCC4C4(C=O)CC2C=C(C(C)C)C43C(=O)O)OC(C)C1OC [Example 3, [1R-(1α, 3aβ, 4β4aβ, 7β, 7aα, 8aβ)] 8a-[(6-Deoxy-3-O-hexyl-4-O-methyl-β-D-altropyranosyloxy)methyl]-4-formyl-4,4a,5,6,7,7a,8,8a-octahydro-7-methyl-3-(1-methylethyl)-1,4-methano-s-indacene-3a(1H)-carboxylic acid] | 4 µg/mL (≈ 6.94 µM) | 0.25 µg/mL (≈ 0.433 µM) | 2 µg/mL (≈ 3.47 µM) | > 125 µg/mL | > 125 µg/mL | 31 µg/mL (≈ 53.7 µM) | 1 µg/mL (≈ 1.73 µM) | 0.25 µg/mL (≈ 0.433 µM) |  |  |  |  | 
2 | COC1CC(OCC23CC4C(C)CCC4C4(C=O)CC2C=C(C(C)C)C43C(=O)O)OC(C)C1OC [Example 5, [1R-(1α, 3aβ, 4β, 4aβ, 7β, 7aα, 8aβ)] 8a-[(2,6-Dideoxy-3,4-O-dimethyl-β-D-allopyranosyloxy)methyl]-4-formyl-4,4a,5,6,7,7a,8,8a-octahydro-7-methyl-3-(1-methylethyl)-1,4-methano-s-indacene-3a(1H)-carboxylic acid] | ≤ 0.001 µg/mL | ≤ 0.001 µg/mL | ≤ 0.001 µg/mL | 1 µg/mL (≈ 2.04 µM) | 1 µg/mL (≈ 2.04 µM) | 31 µg/mL (≈ 63.2 µM) | 0.004 µg/mL (≈ 0.00815 µM) | ≤ 0.001 µg/mL | ≤ 0.001 µg/mL |  |  |  | 
3 | CCCOC1CC(OCC23CC4C(C)CCC4C4(C=O)CC2C=C(C(C)C)C43C(=O)O)OC(C)C1OC [Example 7, [1R-(1α, 3aβ, 4β, 4aβ, 7β, 7aα, 8aβ)] 8a-[(2,6-Dideoxy-4-O-3-O-propyl-β-D-alopyranosyloxy)methyl]-4-formyl-4,4a,5,6,7,7a,8,8a-octahydro-7-methyl-3-(1-methylethyl)-1,4-methano-s-indacene-3a(1H)-carboxylic acid] | 0.015 µg/mL (≈ 0.0289 µM) | ≤ 0.001 µg/mL | 0.008 µg/mL (≈ 0.0154 µM) | 8 µg/mL (≈ 15.4 µM) | 8 µg/mL (≈ 15.4 µM) | 125 µg/mL (≈ 241 µM) | 0.003 µg/mL (≈ 0.00578 µM) | 0.004 µg/mL (≈ 0.00771 µM) | 0.004 µg/mL (≈ 0.00771 µM) | active in protecting male mice | no adverse effects were observed |  | 
4 | COCOC1CC(OCC23CC4C(C)CCC4C4(C=O)CC2C=C(C(C)C)C43C(=O)O)OC(C)C1OC [Example 8, [1R-(1α, 3aβ, 4β, 4aβ, 7β, 7aα, 8aβ)] 8a-[(2,6-Dideoxy-4-O-methyl-3-O-methyloxymethyl-β-D-allopyranosyloxy)methyl]-4-formyl-4,4a,5,6,7,7a,8,8a-octahydro-7-methyl-3-(1-methylethyl)-1,4-methano-s-indacene-3a(1H)-carboxylic acid] | 0.25 µg/mL (≈ 0.48 µM) | 0.03 µg/mL (≈ 0.0576 µM) | 0.25 µg/mL (≈ 0.48 µM) | 16 µg/mL (≈ 30.7 µM) | 16 µg/mL (≈ 30.7 µM) | 31 µg/mL (≈ 59.5 µM) | 2 µg/mL (≈ 3.84 µM) | 0.12 µg/mL (≈ 0.23 µM) | 0.12 µg/mL (≈ 0.23 µM) |  |  |  | 
5 | CCCOC1C(C)OC(OCC23CC4C(C)CCC4C4(C=O)CC2C=C(C(C)C)C43C(=O)O)CC1OC [Example 9, [1R-(1α, 3aβ, 4β, 4aβ, 7β, 7aα, 8aβ)] 8a-[(2,6-Dideoxy-3-O-methyl-4-O-propyl-β-D-allopyranosyloxy)methyl]-4-formyl-4,4a,5,6,7,7a,8,8a-octahydro-7-methyl-3-(1-methylethyl)-1,4-methano-s-indacene-3a(1H)-carboxylic acid] | 8 µg/mL (≈ 15.4 µM) | 2 µg/mL (≈ 3.86 µM) | 8 µg/mL (≈ 15.4 µM) | > 125 µg/mL | > 125 µg/mL | 125 µg/mL (≈ 241 µM) | 16 µg/mL (≈ 30.8 µM) | 2 µg/mL (≈ 3.86 µM) | 4 µg/mL (≈ 7.71 µM) |  |  |  | 
6 | COC1C(C)OC(OCC23CC4C(C)CCC4C4(C=O)CC2C=C(C(C)C)C43C(=O)O)C(O)C1N=[N+]=[N-] [Example 10, [1R-(1α, 3aβ, 4β, 4aβ, 7β, 7aα, 8aβ)] 8a-[(3-Azido-3,6-dideoxy-4-O-methylβ-D-altropyranosyloxy)methyl]-4-formyl-4,4a,5,6,7,7a,8,8a-octahydro-7-methyl-3-(1-methylethyl)-1,4-methano-s-indacene-3a(1H)-carboxylic acid] | 1 µg/mL (≈ 1.93 µM) | 0.12 µg/mL (≈ 0.232 µM) | 1 µg/mL (≈ 1.93 µM) | 62 µg/mL (≈ 120 µM) | 62 µg/mL (≈ 120 µM) | 4 µg/mL (≈ 7.73 µM) |  |  | 0.5 µg/mL (≈ 0.966 µM) | active in protecting male mice | no adverse effects were observed |  | 
7 | COC1C(C)OC(OCC23CC4C(C)CCC4C4(C=O)CC2C=C(C(C)C)C43C(=O)O)C(O)C1SC [Example 11, [1R-(1α, 3aβ, 4β, 4aβ, 7β, 7aα, 8aβ)] 8a-[(3,6-Dideoxy-4-O-methyl-3-methylthio-β-D-altropyranosyloxy)methyl]-4-formyl-4,4a,5,6,7,7a,8,8a-octahydro-7-methyl-3-(1-methylethyl)-1,4-methano-s-indacene-3a(1H)-carboxylic acid] | 1 µg/mL (≈ 1.91 µM) | 0.25 µg/mL (≈ 0.478 µM) | 1 µg/mL (≈ 1.91 µM) | 31 µg/mL (≈ 59.3 µM) | 31 µg/mL (≈ 59.3 µM) | 0.05 µg/mL (≈ 0.0957 µM) | 2 µg/mL (≈ 3.83 µM) | 1 µg/mL (≈ 1.91 µM) | 1 µg/mL (≈ 1.91 µM) |  |  |  | 
8 | COC1C(N=[N+]=[N-])CC(OCC23CC4C(C)CCC4C4(C=O)CC2C=C(C(C)C)C43C(=O)O)OC1C [Example 15, [1R-(1α, 3aβ, 4β, 4aβ, 7β, 7aα, 8aβ)] 8a-[(3-Azido-4-O-methyl-2,3,6-trideoxy-β-D-allopyranosyloxy)methyl]-4-formyl-4,4a,5,6,7,7a,8,8a-octahydro-7-methyl-3-(1-methylethyl)-1,4-methano-s-indacene-3a(1)-carboxylic acid] | ≤ 0.001 µg/mL | ≤ 0.001 µg/mL | ≤ 0.001 µg/mL | 1 µg/mL (≈ 1.99 µM) | 1 µg/mL (≈ 1.99 µM) | 31 µg/mL (≈ 61.8 µM) | 0.004 µg/mL (≈ 0.00797 µM) | ≤ 0.001 µg/mL | ≤ 0.001 µg/mL |  |  |  | 
9 | CCCCCCCC(=O)OC1C(O)C(OCC23CC4C(C)CCC4C4(C=O)CC2C=C(C(C)C)C43C(=O)O)OC(C)C1OC [Example 24, [1R-(1α, 3aβ, 4β, 4aβ, 7β, 7aα, 8aβ,)] 8a-[(6-Deoxy-4-O-methyl-3'-O-octanoyl-β-D-altropyranosyloxy)methyl]-4-formyl-4,4a,5,6,7,7a,8,8a-octahydro-7-methyl-3-(1-methylethyl)-1,4-methano-s-indacene-3a(1H)-carboxylic acid] | 0.6 µg/mL (≈ 0.97 µM) | ≤ 0.001 µg/mL | 0.03 µg/mL (≈ 0.0485 µM) | 500 µg/mL (≈ 808 µM) | 500 µg/mL (≈ 808 µM) | 0.25 µg/mL (≈ 0.404 µM) | 0.06 µg/mL (≈ 0.097 µM) | 0.004 µg/mL (≈ 0.00646 µM) |  |  |  |  | 
10 | COC1CCC(OCC23CC4C(C)CCC4C4(C=O)CC2C=C(C(C)C)C43C(=O)O)OC1C [Example 39, [1R-(1α, 3aβ, 4aβ, 7β, 7aα, 8aβ)] 8a-[(2,3,6-Trideoxy-4-O-methyl-β-D-allopyranosyloxy)methyl]-4-formyl-4,4a,5,6,7,7a,8,8a-octahydro-7-methyl-3-(1-methylethyl)-1,4-methano-s-indacene-3a(1H)-carboxylic acid] | 0.06 µg/mL (≈ 0.13 µM) | 0.004 µg/mL (≈ 0.00868 µM) | 0.06 µg/mL (≈ 0.13 µM) | 8 µg/mL (≈ 17.4 µM) | 8 µg/mL (≈ 17.4 µM) | 62 µg/mL (≈ 135 µM) | 0.25 µg/mL (≈ 0.543 µM) | 0.008 µg/mL (≈ 0.0174 µM) |  |  |  |  | 
11 | CC(=O)OC1C(C)OC(OCC23CC4C(C)CCC4C4(C=O)CC2C=C(C(C)C)C43C(=O)O)CC1SC(C)=O [Example 42, [1R-(1α, 3aβ, 4β, 4aβ, 7β, 7aα, 8aβ)] 8a-(((2,3,6-Trideoxy-4-O-acetyl-3-acetylthio-b-D-allopyranosyl)oxy)methyl)-4-formyl-4,4a,5,6,7,7a,8,8a-octahydro-7-methyl-3-(1-methylethyl)-1,4-methano-s-indacene-3a(1H)-carboxylic acid] | 0.06 µg/mL (≈ 0.107 µM) | ≤ 0.001 µg/mL | 0.06 µg/mL (≈ 0.107 µM) | 31 µg/mL (≈ 55.1 µM) | 31 µg/mL (≈ 55.1 µM) | > 125 µg/mL | 1 µg/mL (≈ 1.78 µM) | ≤ 0.001 µg/mL | 0.015 µg/mL (≈ 0.0267 µM) |  |  |  | 
12 | COC1C(C)OC(OCC23CC4C(C)CCC4C4(C=O)CC2C=C(C(C)C)C43C(=O)O)C(O)C1O (stereo not drawn) [sordarin] |  |  |  |  |  |  |  |  |  |  |  | fungistatic activity | only moderately active and have limited spectra of action
13 | CC=CC=CC(=O)OC1C(O)C(OCC23CC4C(C)CCC4C4(C=O)CC2C=C(C(C)C)C43C(=O)O)OC(C)C1OC (stereo not drawn) [zofimarin] |  |  |  |  |  |  |  |  |  |  |  | antifungal activity | only moderately active and have limited spectra of action
